Results as given in patent US20200368190A1, “METHODS OF TREATMENT” (Arena Pharmaceuticals, Inc., priority 2017, published 2020).

Key:
[1] = intravenous; cited from earlier work
[2] = oral, titrated to the highest tolerated dose; individuals with systemic sclerosis; cited from earlier work
[3] = intravenous, over 9 weeks, cited from earlier work
[4] = Clinical Trial 1: 22-week randomized, double-blind, placebo-controlled study with dose titration; type: in vivo
Method: A 22-week randomized, double-blind, placebo-controlled study with a dose titration period of up to 9 weeks was conducted. Sixty-one individuals were randomized 2:1 Compound 1 to placebo. Right Heart Catheterization (RHC) measurements were obtained prior to study Day 1 of the dose titration period and at Week 22. The following values were obtained and recorded: pulmonary artery pressure (PAP) (systolic, diastolic, and mean), heart rate (HR), right atrial pressure (RAP), pulmonary capillary wedge pressure (PCWP) right ventricular pressure (RVP) and cardiac output (CO), pulmonary vascular resistance (PVR), arterial and mixed venous oxygen saturation […] (if applicable). Systemic vascular resistance (SVR) was estimated from blood pressure measurements.
Primary efficacy endpoints for the study were: a) change from baseline in PVR after 22 weeks of treatment, and b) change from baseline in 6 MWD after 22 weeks of treatment. Compound 1 was administered as a capsule in 0.01, 0.02, 0.03, 0.04, and 0.10 mg dose strengths. The starting dose of Compound 1 was 0.01 mg twice daily. The dose of Compound 1 was titrated according to individual tolerability. If the initial dose was tolerated (0.01 mg twice daily), then the dose was increased once a week in the following fashion: 0.02 mg twice daily, 0.03 mg twice daily, 0.04 mg twice daily, 0.06 mg twice daily, 0.08 mg, 0.1 mg twice daily, 0.2 mg twice daily and 0.3 mg twice daily. The dose was optionally escalated to a possible maximum total daily dose of 0.6 mg (0.3 mg twice daily), pending tolerability.

[5] = Clinical Trial 2: randomized, double-blind, placebo-controlled study in individuals with severe Raynaud's; type: in vivo; conditions: titration scheme
Method: A randomized, double-blind, placebo-controlled study is conducted in individuals with severe Raynaud's. Individuals are administered Compound 1 using a titration scheme. Compound 1 is determined to be efficacious for the treatment and/or prevention of Raynaud's.

[6] = after 22 weeks of treatment, capsule, titrated from 0.01 mg twice daily up to 0.3 mg twice daily

For `CCCCC[C@H](O)/C=C/[C@@H]1[C@H]2C/C(=C/CCCC(=O)O)O[C@H]2C[C@H]1O` [epoprostenol], the “frequency and duration of Raynaud phenomenon attacks” value [1] is given as “reduced frequency and duration” and the “loss in clinical response, time after the last infusion” value [1] is given as 8-10 weeks.

In the case of `CC(C)N(CCCCOCC(=O)NS(C)(=O)=O)c1cnc(-c2ccccc2)c(-c2ccccc2)n1` [selexipag], the “primary efficacy endpoint: reduction in the number of Raynaud's phenomenon attacks per week versus placebo” value [2] is listed as “did not meet the primary efficacy endpoint”.

For `CC#CCC(C)[C@H](O)/C=C/[C@@H]1[C@H]2C/C(=C/CCCC(=O)O)C[C@H]2C[C@H]1O` (stereo partly drawn) [iloprost], the improve severity score ([3]; vs. 19.7% comparator) is listed as 34.8% and the “reduce weekly Raynaud phenomenon attacks” value ([3]; vs. 22.2% comparator) is listed as 39.1%.

For `O=C(O)COC[C@H]1CC[C@H](COC(=O)N(c2ccccc2)c2ccc(Cl)cc2)CC1` [Compound 1, 2-(((1r,4r)-4-(((4-chlorophenyl)(phenyl)carbamoyloxy)methyl)cyclohexyl)methoxy)acetic acid], the “adverse events observed in the study” value ([4]; 22-week study, titrated up to 0.6 mg total daily dose) was “consistent with other prostacyclin treatments for the management of PAH”, the “6-minute walk distance (6MWD)” value [4, 6] was “numerical improvement” and the “change from baseline in pulmonary vascular resistance (PVR) compared to placebo (primary endpoint)” value [4, 6] was “statistically significant change from baseline”. The “efficacy for the treatment and/or prevention of Raynaud's” value [5] was “efficacious”.
